Measurements from paper PMC10859961, “Ir(III) Half-Sandwich Photosensitizers with a π-Expansive Ligand for Efficient Anticancer Photodynamic Therapy” (Journal of Medicinal Chemistry, 2024).
Where two headings read alike, the source gives them in different places.

Tests used:
[1] = test system: calf thymus DNA (CT-DNA); experiment: Competitive EtBr displacement assay; type: binding; settings: CT-DNA saturated with EtBr; 1 h, room temperature; read-out: C50 (50% reduction of EtBr fluorescence)
Experimental: To investigate the capacity of the complexes to intercalate into DNA, the competitive ethidium displacement assay was carried out as previously described[149] with minor modifications. Stock solutions of 20 μM calf thymus DNA (CT-DNA) and 25 μM Ethidium bromide (EtBr) were prepared in saline TE (50 mM NaCl, 10 mM tris(hydroxymethyl) aminomethane–HCl, 0.1 mM ethylenediaminetetracetic acid (EDTA), pH 7.4). Serial dilutions of metal complexes were prepared at concentrations ranging from 20 to 400 μM from a 1 mM stock solution containing 20% DMSO. The assay was carried out by mixing 25 μL of CT-DNA and 25 μL of EtBr with 50 μL of each compound dilution, on a black 96-well plate. The plate was incubated at room temperature for 1 h and the fluorescence was measured on a Synergy 4 microplate reader (Biotek, Winooski), with excitation wavelength set to 500 nm, and emission wavelength set to 530–800 nm. The fluorescence emission at 590 nm was used to measure the C50, corresponding to the concentration of compound required to induce a 50% decrease in the fluorescence of the EtBr. Experiments were performed in triplicate.

[2] = test system: porcine red blood cells (RBC); experiment: Hemolytic activity (hemoglobin release); type: cell-based; settings: dark, 1 hour
Experimental: The hemolytic activities of the complexes were determined by measuring hemoglobin release from porcine red blood cells (RBC). First, fresh porcine blood commercially obtained was diluted to 5% v/v in PBS solution and washed three times with PBS by centrifugation at 1000 rcf for 10 min. Then, RBC suspension (150 μL) was mixed with 150 μL of each complex at concentrations ranging from 1 to 50 μM. A solution of 0.2% Triton X-100 in PBS was used as positive control to induce complete hemolysis. PBS alone was used as negative control. Samples were incubated at 37 °C for 1 h in an orbital shaker (50 rpm) and then centrifuged at 3500 rcf for 10 min. 80 μL aliquots of the supernatant were transferred to a 96-well plate and diluted with 80 μL of Milli-Q water. Hemolysis was evaluated by measuring the absorbance of the samples at 540 nm with a Synergy 4 plate reader (BioTek, Winooski). The percentage of hemolysis (H) was calculated using eq 4: [drawing 25] 4 where As is the absorbance for a given sample, An is the absorbance for the negative control, and Ap is the absorbance for the positive control. Each sample was tested in triplicate.

[3] = test system: A549 cells; experiment: Mitochondrial membrane potential (JC-1, flow cytometry); type: cell-based, human; settings: 10 nM, blue light 1 h
Experimental: A549 cells were seeded onto 24-well plates. 24 h later, cells were incubated for 4 h with complexes 2, 4, 6, and 8 at 10 nM and then photoactivated or kept in the dark for an additional hour. Next, the cells were washed with PBS and harvested by trypsinization. Mitochondrial membrane potential changes were immediately measured by the JC-1 (5,5′,6,6′-tetrachloro-1,1′,3,3′-tetraethylbenzimidazolocarbo-cyanine iodide) Mitochondrial Membrane Potential Detection Kit (Biotium), according to the manufacturer’s instructions. As positive control, the cells were coincubated with CCCP (Sigma) at 5 μM for 30 min to disrupt the mitochondrial membrane potential. For each treatment, the fluorescence of 1 × 10^4 cells was analyzed by a Novocyte flow cytometer. JC-1 red aggregates were detected at a wavelength of 590 nm (FL2) and JC-1 green monomers at 529 nm (FL1).

[4] = test system: PC-3; experiment: CyQUANT cell viability assay, dark or blue light; type: cell-based, human; settings: for IC50 / PI (IC50,dark/IC50,light): PC-3, CyQUANT; for IC50: 48 h; for PI (IC50,dark/IC50,light): blue light 460 nm; for PI/Dose: PC‐3, 460 nm, dose 24.1 J cm‐2, PI from CyQUANT
Experimental: (§1) Cells were cultured in 96-well plates at a density of 3000 (A549), 2500 (HeLa), or 5000 (PC-3, 1BR.3.G, and MRC-5) cells per well in cell culture medium and allowed to attach for 24 h. Solutions of the complexes at different concentrations were prepared for cell treatments. In all cases, the solid compounds were weighed using an analytical balance (Mettler Toledo AX205DR) to ensure precise measurements. Subsequently, 5 mM solutions were prepared using DMSO. Solutions were then diluted in water to reach a concentration of 1 mM and then, aliquots were taken and diluted in culture medium to obtain solutions ranging from 0 to 50 μM. […] The cells were treated with these solutions in dark conditions or following the photoactivation protocol (see below). 48 h later the treatments were removed, and cells were washed with phosphate-buffered saline (PBS).
(§2) Initially, the effect of the complexes on the cell viability was determined by the 3-(4,5-dimethylthiazol-2-yl)-2,5-diphenyltetrazolium bromide (MTT) assay.[147] The cells were incubated for 2 h with 100 μL of culture medium together with 10 μL of MTT (Sigma-Aldrich) at 0.5 mg/mL. After discarding the medium, DMSO was added to each well to dissolve the purple formazan crystals. The absorbance of each well was determined on a Multiscan Plate Reader (Synergy 4, Biotek, Winooski) at a wavelength of 570 nm. Cell viability was also assessed using the CyQUANT Direct Cell Proliferation Assay (Thermo Fisher Scientific), following the manufacturer’s instructions. Briefly, after the treatments, the cells were washed with PBS, and an equal volume of culture medium and CyQUANT mix was added to each well. The plates were then incubated for 1 h at 37 °C. Subsequently, the fluorescence intensity was bottom read using a Multiscan Plate Reader (Synergy 4, Biotek, Winooski) with excitation and emission filters of 485 and 528 nm, respectively. In both assays, at least three replicates were measured for each treatment. The concentration that reduces the cell viability by 50% (IC50) was established using the Gen5 software (BioTek). Three independent experiments were carried out for each compound. […] The phototoxicity index (PI = IC50,dark/IC50,light) was determined.
(§3) To assess the photodynamic activity of the complexes, cells were incubated with the complexes for 4 h to enable their intracellular accumulation. The cells were then irradiated with light with a wavelength of 460 nm (blue), 530 nm (green), or 655 nm (red) for 1 h using a LED system (LuxLight) with an effective power of 6.7 mW cm^–2, which provides a total light dose of 24.1 J cm^–2. The LED system was positioned at 25 mm from the cell culture plates.

[5] = test system: HeLa; experiment: CyQUANT cell viability assay, dark or blue light; type: cell-based, human; settings: for IC50: 48 h; for IC50 / PI (IC50,dark/IC50,light): CyQUANT; for PI (IC50,dark/IC50,light): blue light 460 nm
Experimental: as §1, §2, §3

[6] = test system: MRC-5; experiment: CyQUANT cell viability assay, dark or blue light; type: cell-based, human; settings: for PI (IC50,dark/IC50,light): MRC-5, blue light 460 nm; for IC50: 48 h
Experimental: as §1, §2, §3

[7] = blue light 460 nm 1 h (24.1 J cm^–2), read-out: IC50,light
[8] = MRC-5, blue light 460 nm 1 h (24.1 J cm^–2), read-out: IC50,light
[9] = MRC-5 nonmalignant lung fibroblasts, dark, read-out: IC50,dark

| SMILES | IC50 [1] [nM] | Hemolytic activity ([2]; 1 μM) [%] | Hemolytic activity ([2]; 5 μM) [%] | Hemolytic activity ([2]; 10 μM) [%] | Hemolytic activity ([2]; 25 μM) [%] | cells with red fluorescence (JC-1 aggregates), upper right quadrant [3] [%] | IC50 [4, 7] [nM] | PI (IC50,dark/IC50,light) [4] | IC50 ([4]; dark, read-out: IC50,dark) [nM] | PI/Dose ([4]; listed as 4) | PI/Dose ([4]; listed as Complex 4) | IC50 [5, 7] [nM] | PI (IC50,dark/IC50,light) [5] | IC50 ([5]; dark, read-out: IC50,dark) [nM] | PI (IC50,dark/IC50,light) [6] | IC50 [6, 8] [nM] | IC50 [6, 9] [nM] | PI/Dose ([5]; 460 nm, dose 24.1 J cm‐2, PI from CyQUANT) | PI/Dose [4] |
| --- | --- | --- | --- | --- | --- | --- | --- | --- | --- | --- | --- | --- | --- | --- | --- | --- | --- | --- | --- |
| Cc1c(C)c(C)[c-](C)c1C.[Cl][Ir]1[c]2cccc3c4nc5ccccc5nc4c4ccc[n+]1c4c23 [complex 1, [(η^5-C5Me5)IrCl(pbpz)]] | 192000 | – | – | – | – | – | – | – | – | – | – | – | – | – | – | – | – | – | – |
| Cc1c(C)c(C)[c-](C)c1C.F[B-](F)(F)F.c1ccc2cc3nc4c5ccc[n+]6c5c5[c](cccc5c4nc3cc2c1)[Ir]6[n+]1cc[nH]c1 [complex 4, [(η^5-C5Me5)Ir(Im)(pbpn)]BF4] | 15900 | 0 | 0 | 0.5 | 6.7 | 34.3 | 1.1 ± 0.6 | 2022 | 2280 ± 700 | 84 | 83.9 | 4.2 ± 0.9 | 370 | 1550 ± 300 | 790 | 3.1 ± 1 | 2480 ± 200 | – | – |
| Cc1c(C)c(C)[c-](C)c1C.F[B-](F)(F)F.c1ccc2nc3c4ccc[n+]5c4c4[c](cccc4c3nc2c1)[Ir]5[n+]1ccn(CCN2CCCCC2)c1 [complex 5, [(η^5-C5Me5)Ir(Imepip)(pbpz)]BF4] | 54600 | – | – | – | – | – | – | – | – | – | – | – | – | – | – | – | – | – | – |
| Cc1c(C)c(C)[c-](C)c1C.F[B-](F)(F)F.c1ccc2cc3nc4c5ccc[n+]6c5c5[c](cccc5c4nc3cc2c1)[Ir]6[n+]1ccn(CCN2CCCCC2)c1 [complex 6, [(η^5-C5Me5) Ir(Imepip)(pbpn)]BF4] | 32800 | 0 | 0 | 1.0 | 10.7 | 16.9 | 1.2 ± 1 | 961 | 1160 ± 160 | – | – | 0.7 ± 0.2 | 1031 | 700 ± 270 | 929 | 0.8 ± 0.2 | 700 ± 80 | 42.7 | – |
| Cc1c(C)c(C)[c-](C)c1C.F[B-](F)(F)F.c1ccc(Cn2cc[n+]([Ir]3[c]4cccc5c6nc7ccccc7nc6c6ccc[n+]3c6c45)c2)cc1 [complex 7, [(η^5-C5Me5)Ir(bzIm)(pbpz)]BF4] | 95400 | – | – | – | – | – | – | – | – | – | – | – | – | – | – | – | – | – | – |
| Cc1c(C)c(C)[c-](C)c1C.F[B-](F)(F)F.c1ccc(Cn2cc[n+]([Ir]3[c]4cccc5c6nc7cc8ccccc8cc7nc6c6ccc[n+]3c6c45)c2)cc1 [complex 8, [(η^5-C5Me5)Ir(bzIm)(pbpn)]BF4] | 15900 | 0.2 | 1.0 | 3.2 | 16.3 | 6.6 | 0.5 ± 0.3 | 1179 | 640 ± 100 | – | – | 0.8 ± 0.2 | 622 | 510 ± 100 | 863 | 0.8 ± 0.1 | 680 ± 100 | – | 48.9 |
